In ChEMBL document CHEMBL1201862, “PubChem BioAssay data set” (2004):
Active and inactive are the calls of the source.

Experiments:
[1] = HEK-293T viability loss after treatment – luminescence, T-cell screen hits, cytotoxicity control for TCR NF-kB inhibitor project, dose response (AID 489026); assay type: functional, cell-based;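 note: cells exposed to compound about 14 hours before the viability readout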
BJ [2] = test: BJ-TERT-LT-ST fibroblast viability loss – cell-based, RAS-independent, luminescence, dose response (AID 1935); assay type: functional; conditions: Homo sapiens;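 note: BJ fibroblasts immortalized with TERT plus LT and ST oncogenes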
BJ [3] = test: cells; assay type: functional, cell-based; conditions: Homo sapiens
BJ [4] = test: BJ-TERT fibroblast viability loss – cell-based, RAS-independent, luminescence, dose response (AID 1933); assay type: functional; conditions: Homo sapiens
[5] = DRD fibroblast viability loss – cell-based, non-viral oncogenic, luminescence, dose response (AID 1934); assay type: functional; conditions: Homo sapiens
[6] = biological target: T1, Corticotropin-releasing factor receptor 2/Corticotropin-releasing factor-binding protein (Homo sapiens, UniProt P24387+Q13324); test: Dose Response confirmation of uHTS hits for small molecule antagonists of the CRF-binding protein and CRF-R2 receptor complex.; assay type: functional; conditions: read-out: IC50_Mean
T1 sequence (Q13324 whole entry): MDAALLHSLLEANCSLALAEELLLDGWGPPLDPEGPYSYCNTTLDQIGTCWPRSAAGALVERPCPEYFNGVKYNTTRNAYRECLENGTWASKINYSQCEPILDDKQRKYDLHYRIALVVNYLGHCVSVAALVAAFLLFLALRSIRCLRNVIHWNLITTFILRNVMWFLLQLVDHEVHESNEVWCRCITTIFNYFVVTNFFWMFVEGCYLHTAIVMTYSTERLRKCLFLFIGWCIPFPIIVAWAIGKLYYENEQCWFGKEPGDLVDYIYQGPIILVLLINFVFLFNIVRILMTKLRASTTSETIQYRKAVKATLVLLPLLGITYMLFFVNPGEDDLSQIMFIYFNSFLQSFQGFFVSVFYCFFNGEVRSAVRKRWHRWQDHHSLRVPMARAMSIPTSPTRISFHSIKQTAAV
T1 sequence (P24387 whole entry): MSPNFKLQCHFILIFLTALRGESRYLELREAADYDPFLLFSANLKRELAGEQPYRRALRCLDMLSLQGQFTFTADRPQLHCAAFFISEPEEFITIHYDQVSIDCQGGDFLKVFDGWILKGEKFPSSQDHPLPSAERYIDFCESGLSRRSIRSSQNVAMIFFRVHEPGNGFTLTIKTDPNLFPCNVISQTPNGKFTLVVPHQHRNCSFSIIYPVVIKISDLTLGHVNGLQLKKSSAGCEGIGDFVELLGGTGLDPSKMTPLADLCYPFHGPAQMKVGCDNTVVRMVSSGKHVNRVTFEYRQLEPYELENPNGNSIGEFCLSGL

[7] = biological target: T1, Corticotropin-releasing factor receptor 2/Corticotropin-releasing factor-binding protein; test: activators of CRF receptor 2 with binding protein – uHTS hits, confirmation (AID 602473); assay type: functional; conditions: read-out: EC50_Mean
Fatty acid synthase [8] = biological target: T2, Fatty acid synthase (Homo sapiens, UniProt P49327); test: inhibition of human FAS-TE enzyme activity – biochemical, endpoint fluorescence intensity, uHTS hits, dose response (AID 624327); assay type: functional;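 note: fluorescence from hydrolysis of an O-methyl fluorescein acyl ester substrate by the enzyme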
Fatty acid synthase [9] = biological target: T2, Fatty acid synthase; test: inhibition of human FAS-TE enzyme activity – biochemical, kinetic fluorescence intensity, dose response (AID 624326); assay type: functional;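 note: rate of fluorescence rise from hydrolysis of a fluorogenic O-methyl fluorescein ester substrate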
[10] = biological target: T3, Heat shock factor protein 1 (Mus musculus, UniProt P38532); test: enhancement of HSF1-driven luciferase signal – cell-based, NIH3T3, luminescence, dose retest, confirmation (AID 435004); assay type: functional;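 note: stress induced by proteasome inhibitor MG132 added 30 min after compound; luciferase reporter driven by HSF1 response element in NIH3T3 cells; actives raise luminescence as potentiators of the MG132 stress response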
T3 sequence (P38532 whole entry): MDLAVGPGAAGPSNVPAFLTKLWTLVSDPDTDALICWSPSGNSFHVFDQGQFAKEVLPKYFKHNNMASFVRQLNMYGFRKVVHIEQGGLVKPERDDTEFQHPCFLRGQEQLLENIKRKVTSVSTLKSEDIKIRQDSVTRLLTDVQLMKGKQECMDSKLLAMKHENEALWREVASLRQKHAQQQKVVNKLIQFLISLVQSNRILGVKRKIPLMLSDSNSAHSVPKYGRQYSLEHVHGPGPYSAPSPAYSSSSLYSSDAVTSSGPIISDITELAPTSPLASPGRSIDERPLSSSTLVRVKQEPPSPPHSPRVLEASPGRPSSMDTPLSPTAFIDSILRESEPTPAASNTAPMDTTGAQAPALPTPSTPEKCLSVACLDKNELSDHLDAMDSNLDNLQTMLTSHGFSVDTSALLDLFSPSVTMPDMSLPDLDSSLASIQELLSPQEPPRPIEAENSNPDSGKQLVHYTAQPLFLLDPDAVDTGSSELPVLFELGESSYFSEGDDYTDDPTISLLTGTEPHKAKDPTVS

[11] = microbe, parasite or virus in culture; assay type: functional; conditions: Mycobacterium tuberculosis
Cytochrome P450 1A2 = biological target: T4, Cytochrome P450 1A2 (Homo sapiens, UniProt P05177);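 note: PubChem cytochrome P450 panel assay, CYP1A2 panel member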
T4 sequence (P05177 whole entry): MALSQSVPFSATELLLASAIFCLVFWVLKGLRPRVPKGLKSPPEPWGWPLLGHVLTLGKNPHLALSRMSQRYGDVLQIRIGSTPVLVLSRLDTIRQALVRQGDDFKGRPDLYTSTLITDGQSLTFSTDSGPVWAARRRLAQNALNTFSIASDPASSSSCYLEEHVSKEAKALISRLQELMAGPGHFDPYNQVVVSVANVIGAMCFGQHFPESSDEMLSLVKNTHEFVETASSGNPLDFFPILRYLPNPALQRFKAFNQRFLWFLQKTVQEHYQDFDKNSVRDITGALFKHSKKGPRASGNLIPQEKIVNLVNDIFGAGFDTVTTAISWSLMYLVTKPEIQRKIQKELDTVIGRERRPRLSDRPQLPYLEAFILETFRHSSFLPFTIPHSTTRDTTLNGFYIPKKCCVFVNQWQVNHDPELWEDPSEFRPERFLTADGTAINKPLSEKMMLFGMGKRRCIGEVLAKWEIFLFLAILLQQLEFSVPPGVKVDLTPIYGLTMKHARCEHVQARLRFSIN

Cytochrome P450 2D6 = Cytochrome P450 2D6 (Homo sapiens, UniProt P10635);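 note: CYP2D6 member of a cytochrome P450 panel assay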
Cytochrome P450 3A4 = Cytochrome P450 3A4 (Homo sapiens, UniProt P08684);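 note: CYP3A4 tested as one member of a cytochrome P450 panel screen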
Chain of Cytochrome P450 3A4 (P08684 whole entry): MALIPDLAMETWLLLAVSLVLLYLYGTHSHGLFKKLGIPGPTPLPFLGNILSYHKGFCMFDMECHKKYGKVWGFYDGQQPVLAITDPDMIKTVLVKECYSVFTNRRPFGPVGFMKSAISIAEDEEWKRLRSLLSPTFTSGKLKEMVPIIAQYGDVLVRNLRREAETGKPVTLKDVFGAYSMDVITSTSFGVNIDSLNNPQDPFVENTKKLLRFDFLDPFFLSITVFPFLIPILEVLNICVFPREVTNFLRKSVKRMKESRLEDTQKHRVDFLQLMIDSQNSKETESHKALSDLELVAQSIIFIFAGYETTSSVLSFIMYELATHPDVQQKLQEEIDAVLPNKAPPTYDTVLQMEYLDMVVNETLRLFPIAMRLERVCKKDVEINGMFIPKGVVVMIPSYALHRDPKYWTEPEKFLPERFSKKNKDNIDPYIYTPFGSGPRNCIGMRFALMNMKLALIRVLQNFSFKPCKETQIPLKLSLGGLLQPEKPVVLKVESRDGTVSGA

T2 sequence (P49327 whole entry): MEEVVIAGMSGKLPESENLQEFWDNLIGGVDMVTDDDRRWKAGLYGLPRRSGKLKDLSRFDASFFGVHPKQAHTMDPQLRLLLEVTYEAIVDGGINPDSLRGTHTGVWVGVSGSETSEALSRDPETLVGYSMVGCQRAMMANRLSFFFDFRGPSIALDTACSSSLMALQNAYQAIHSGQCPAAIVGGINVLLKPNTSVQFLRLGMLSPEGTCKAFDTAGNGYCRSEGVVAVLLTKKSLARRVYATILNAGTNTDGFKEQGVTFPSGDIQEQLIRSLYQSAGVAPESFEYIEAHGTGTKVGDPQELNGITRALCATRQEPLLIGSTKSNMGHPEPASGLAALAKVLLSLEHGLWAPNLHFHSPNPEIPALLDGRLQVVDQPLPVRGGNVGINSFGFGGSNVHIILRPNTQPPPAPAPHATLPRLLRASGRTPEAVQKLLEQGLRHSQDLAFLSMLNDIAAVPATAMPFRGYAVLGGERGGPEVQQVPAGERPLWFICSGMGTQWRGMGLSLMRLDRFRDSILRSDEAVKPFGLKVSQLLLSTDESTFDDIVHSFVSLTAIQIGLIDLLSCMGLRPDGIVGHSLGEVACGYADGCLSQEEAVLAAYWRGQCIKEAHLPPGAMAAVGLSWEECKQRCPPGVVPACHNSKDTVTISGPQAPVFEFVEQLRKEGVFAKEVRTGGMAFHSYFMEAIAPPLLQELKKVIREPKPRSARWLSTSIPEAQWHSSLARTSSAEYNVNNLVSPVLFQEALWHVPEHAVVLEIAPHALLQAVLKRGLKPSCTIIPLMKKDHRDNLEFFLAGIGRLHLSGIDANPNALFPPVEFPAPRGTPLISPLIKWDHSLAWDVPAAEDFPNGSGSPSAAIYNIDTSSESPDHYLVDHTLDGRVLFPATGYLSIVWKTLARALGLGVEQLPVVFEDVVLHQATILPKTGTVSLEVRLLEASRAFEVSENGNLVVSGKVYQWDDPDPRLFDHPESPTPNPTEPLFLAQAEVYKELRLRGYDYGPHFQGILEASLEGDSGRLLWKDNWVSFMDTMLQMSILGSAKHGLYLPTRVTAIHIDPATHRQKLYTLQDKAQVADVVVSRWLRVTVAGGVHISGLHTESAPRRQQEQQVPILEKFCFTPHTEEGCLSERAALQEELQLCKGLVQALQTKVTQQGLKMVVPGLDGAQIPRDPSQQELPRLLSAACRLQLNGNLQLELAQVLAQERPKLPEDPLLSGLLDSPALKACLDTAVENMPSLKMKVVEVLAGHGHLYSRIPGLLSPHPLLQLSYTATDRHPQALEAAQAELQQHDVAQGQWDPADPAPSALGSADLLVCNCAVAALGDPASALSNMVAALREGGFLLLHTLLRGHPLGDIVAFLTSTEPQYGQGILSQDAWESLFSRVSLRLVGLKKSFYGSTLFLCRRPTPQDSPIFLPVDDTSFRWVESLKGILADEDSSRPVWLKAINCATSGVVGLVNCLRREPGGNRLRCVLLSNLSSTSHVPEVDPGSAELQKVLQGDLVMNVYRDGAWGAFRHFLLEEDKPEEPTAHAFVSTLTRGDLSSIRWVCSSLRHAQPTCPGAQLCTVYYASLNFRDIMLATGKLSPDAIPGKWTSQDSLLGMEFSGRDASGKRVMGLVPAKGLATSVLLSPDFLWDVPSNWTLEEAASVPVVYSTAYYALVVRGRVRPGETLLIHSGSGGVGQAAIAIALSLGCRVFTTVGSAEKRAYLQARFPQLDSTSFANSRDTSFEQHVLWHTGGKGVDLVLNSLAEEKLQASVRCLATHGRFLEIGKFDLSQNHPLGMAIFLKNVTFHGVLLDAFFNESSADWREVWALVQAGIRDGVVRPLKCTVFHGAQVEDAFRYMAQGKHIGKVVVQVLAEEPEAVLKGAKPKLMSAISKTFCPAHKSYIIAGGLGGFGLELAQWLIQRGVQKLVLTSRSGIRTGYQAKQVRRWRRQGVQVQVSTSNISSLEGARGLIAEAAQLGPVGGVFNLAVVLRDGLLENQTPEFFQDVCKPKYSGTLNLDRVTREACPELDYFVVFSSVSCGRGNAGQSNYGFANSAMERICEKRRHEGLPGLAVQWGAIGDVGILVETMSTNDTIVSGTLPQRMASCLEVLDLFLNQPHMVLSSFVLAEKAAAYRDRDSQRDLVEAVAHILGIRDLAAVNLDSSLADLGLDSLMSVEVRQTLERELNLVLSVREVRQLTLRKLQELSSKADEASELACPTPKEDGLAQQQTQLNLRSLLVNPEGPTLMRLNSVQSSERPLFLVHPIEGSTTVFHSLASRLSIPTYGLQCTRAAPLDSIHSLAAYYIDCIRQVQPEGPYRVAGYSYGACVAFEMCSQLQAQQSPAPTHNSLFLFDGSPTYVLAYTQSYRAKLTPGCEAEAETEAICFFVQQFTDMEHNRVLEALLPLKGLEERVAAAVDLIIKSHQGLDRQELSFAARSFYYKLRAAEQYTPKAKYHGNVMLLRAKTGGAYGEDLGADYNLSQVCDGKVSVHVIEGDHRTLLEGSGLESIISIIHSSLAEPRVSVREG
Chain of Cytochrome P450 2D6 (P10635 whole entry): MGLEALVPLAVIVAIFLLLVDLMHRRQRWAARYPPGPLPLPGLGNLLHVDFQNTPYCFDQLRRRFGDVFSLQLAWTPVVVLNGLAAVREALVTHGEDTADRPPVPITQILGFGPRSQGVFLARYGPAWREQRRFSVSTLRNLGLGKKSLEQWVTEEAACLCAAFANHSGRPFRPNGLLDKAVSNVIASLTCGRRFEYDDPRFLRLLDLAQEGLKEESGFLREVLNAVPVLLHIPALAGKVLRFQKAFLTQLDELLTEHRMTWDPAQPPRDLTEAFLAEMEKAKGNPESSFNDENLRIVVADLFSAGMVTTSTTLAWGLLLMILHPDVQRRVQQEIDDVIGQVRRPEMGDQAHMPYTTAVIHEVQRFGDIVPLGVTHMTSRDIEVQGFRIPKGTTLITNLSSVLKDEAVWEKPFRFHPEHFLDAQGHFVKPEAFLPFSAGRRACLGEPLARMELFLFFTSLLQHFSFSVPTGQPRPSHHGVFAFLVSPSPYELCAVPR

With `CCOC(=O)C(C)Oc1cccc2c(=O)n(CC(=O)NCc3ccccc3)ccc12` (configuration not stated) as the molecule, how does the IC50 [1] read?
The IC50 was > 80 µM (inactive).

What about the EC50 (BJ [2]) of the same molecule?
The EC50 was 0.785 µM (active).

And the EC50 (BJ [3])?
Its EC50 is 7.35 µM (active).

What about the EC50 (BJ [4]) of the same molecule?
The EC50 was 0.772 µM (active).

What about the EC50 [5] of the same molecule?
Its EC50 is 0.645 µM (active).

What does the source list for `O=C(CC1N=C2c3ccccc3N=C(SCc3ccccc3Cl)N2C1=O)NCc1ccco1` (configuration not stated)?
IC50 [6]: > 47.1 µM (inactive); EC50 [7]: > 53 µM (inactive)

Which IC50 [1] does the source give for `O=C(NCCOc1ccccc1)c1cc([N+](=O)[O-])ccc1N1CCOCC1` here?
Its IC50 is > 80 µM (inactive).

With `COc1ccc(C(=O)N/C(=C\c2cn(S(=O)(=O)N(C)C)c3ccccc23)C(=O)N2CCCC2)cc1` as the molecule, how does the IC50 (Fatty acid synthase [8]) read?
The IC50 was 1.47 µM (active).

What about the IC50 (Fatty acid synthase [9]) of the same molecule?
The IC50 was 4.3 µM (active).

With `CCCCCN(CCCCC)C(=O)C(CCC(=O)O)NC(=O)c1ccc(Cl)c(Cl)c1` (configuration not stated) [LORGLUMIDE SODIUM] as the molecule, how does the IC50 (Fatty acid synthase [8]) read?
The IC50 was 5.09 µM (active).

And the IC50 (Fatty acid synthase [9])?
The IC50 was 5.31 µM (active).

What does the source list for `COc1ccc(NC(=O)CCN2CCCCCC2)cc1`?
IC50 [6]: > 47.1 µM (inactive); EC50 [7]: > 53 µM (inactive)

Which results are given for `CCc1ccc(NC(=O)CSc2nc3nnc(C)c-3c(N)n2-c2cccc(OC)c2)cc1`?
EC50 [10]: 118 µM (active); CC50 [11]: 22.6 µM (active)

For `Cc1ccc(C(=O)c2cc([N+](=O)[O-])ccc2N2CCCCC2)cc1C`, which IC50 [1] is on record?
Its IC50 is > 80 µM (inactive).

What about the EC50 (BJ [2]) of the same molecule?
Its EC50 is 1.33 µM (active).

What about the EC50 (BJ [3]) of the same molecule?
Its EC50 is 35.6 µM (active).

What about the EC50 (BJ [4]) of the same molecule?
The EC50 was 1.69 µM (active).

What about the EC50 [5] of the same molecule?
The EC50 was 0.966 µM (active).

For `CC(C)c1ccc(/C=N/NC(=O)CN(c2cccc(Cl)c2Cl)S(C)(=O)=O)cc1`, which AC50 (Cytochrome P450 1A2) is on record?
The AC50 was 25.1 µM (inconclusive).

What about the IC50 (Fatty acid synthase [8]) of the same molecule?
The IC50 was 10.4 µM (active).

And the AC50 (Cytochrome P450 2D6)?
Its AC50 is 28.2 µM (inconclusive).

What about the AC50 (Cytochrome P450 3A4) of the same molecule?
Its AC50 is 28.2 µM (inconclusive).

And the IC50 (Fatty acid synthase [9])?
Its IC50 is 7.36 µM (active).

Which IC50 [6] does the source give for `COc1cc(O)c2c(c1)COC2=O` here?
Its IC50 is > 47.1 µM (inactive).

And the EC50 [7]?
Its EC50 is > 53 µM (inactive).

Which IC50 (Fatty acid synthase [8]) does the source give for `C=CCOC(=O)COc1ccc2c(C)c(CC)c(=O)oc2c1` here?
The IC50 was 5.57 µM (active).

And the IC50 (Fatty acid synthase [9])?
Its IC50 is 3.08 µM (active).

With `COc1ccc(C(=O)OCC(=O)NCCCc2ccccc2)cc1[N+](=O)[O-]` as the molecule, how does the IC50 (Fatty acid synthase [8]) read?
Its IC50 is 4.1 µM (active).

What about the IC50 (Fatty acid synthase [9]) of the same molecule?
Its IC50 is 4.84 µM (active).
